# Data published in patent US20220409617A1, “Drug Formulations and Methods of Treatment for Metabolic Disorders” (The Regents of the University of California, priority 2019, published 2022).
# “Also recorded” adds a separate entry of the source.
# Test system: C16:0 ceramide generation (CerS6)
# Assay: C16:0 ceramide levels in palmitate-treated MEFs (UPLC-MS/MS)
# Type: cell-based, mouse
# Procedure: Plasma pharmacokinetic analysis of sphingolipid-like compound 893 was performed by Pharmaron Corporation (Beijing, China). C16:0 ceramide levels were quantified in cells using the method described in (T. Kasumov, et al., Anal. Biochem. 401: 154-161, 2010, the disclosure of which is incorporated herein by reference) with minor modifications. Cultured cells were washed twice in PBS and scraped into 250 μL of HPLC grade water and flash frozen until time of analysis. On the day of analysis, samples were thawed, and an aliquot used for protein quantification. For C16:0 ceramide levels in mouse liver, 25 mg of tissue was homogenized in 1 ml of ice-cold PBS using a mechanical probe homogenizer (VWR, Radnor, Pa.), protein levels quantified, and 50 μl of the homogenate diluted with 150 μl HPLC-grade water for C16:0 ceramide analysis. Fifty ng of C17:0 ceramide prepared in ethanol (#22532, Cayman Chemical, Ann Arbor, Mich.) was added into 200 μL of the thawed cell suspension or liver homogenate as an internal standard to control for varying extraction efficiency; 750 μL of an ice-cold 1:2 chloroform/methanol mixture was then added. Samples were sonicated for 30 min and phase separation induced by the addition of 250 μL each of chloroform and HPLC-grade water. Samples were centrifuged at 4° C. for 10 min and the lower lipid phase transferred to a clean tube. The remaining protein and aqueous layers were re-extracted with an additional 500 μL of chloroform. Lipid phases were combined and then dried under vacuum. Dried extract was re-constituted in 100% acetonitrile immediately before analysis. Samples were analyzed by ultra-performance liquid chromatography tandem mass spectrometry (UPLC-MS/MS) using a Waters Micromass Quattro Premier XE equipped with a Waters ACQUITY BEH C4 column (Waters Corp.). Samples were resolved starting at 60% mobile phase A (10 mM ammonium acetate and 0.05% formic acid in water) to 98% mobile phase B (60:40 acetonitrile:isopropanol) over 3 min with a linear gradient, held at 98% B for 1 min, then the column was equilibrated with 60% A for 1 min. The mass spectrometer was operated in positive ion mode with the following parameters: cone voltage 20 V, source temperature 125° C., desolvation temperature 400° C. Ion transition channels for MS/MS were 538→264 for C16:0 ceramide and 552→264 for C17:0 ceramide, both with a dwell time of 285 ms. Standard curves prepared from C16:0 ceramide (#860516, Avanti Polar Lipids, Alabaster, Ala.) dissolved in ethanol were used for quantitation and were linear from 4.1 nM-1,000 nM, with an R^2 of 0.98 or greater.
# 3T3-L1 cells were maintained in DMEM with 10% FBS and 1% penicillin-streptomycin until induced to differentiate. […]
structure (smiles),measurement,setting,value
CCCCCCCCc1ccc([C@H]2CCN[C@@H]2CO)cc1.Cl [compound 893],Palmitate-induced C16:0 ceramide production,"MEFs, 3 h pre-treatment (893 5 μM, myriocin 10 μM, fumonisin B1 30 μM) then palmitate 250 μM 3 h",failed to block C16:0 ceramide generation; also recorded: without blocking palmitate-induced ceramide production
same,CerS6 inhibition,inferred from C16:0 ceramide generation in palmitate-treated cells,did not inhibit CerS6
